# Measured values as given in PubChem BioAssay (NCI).
#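 96-well plates; 48 h exposure; 5 concentrations. Endpoints by linear interpolation between flanking doses. Not reached: highest tested concentration assigned. TGI: total growth inhibition.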
# Key:
# Assay in all cases: DTP human tumour cell line panel, 48 h
# 786-0 renal = tested on: 786-0 renal
# A498 renal = tested on: A498 renal
# A549 NSCLC = tested on: A549 NSCLC
# ACHN renal = tested on: ACHN renal
# BT-549 breast = tested on: BT-549 breast
# CAKI-1 renal = tested on: CAKI-1 renal
# CCRF-CEM leukemia = tested on: CCRF-CEM leukemia
# COLO 205 colon = tested on: COLO 205 colon
# EKVX NSCLC = tested on: EKVX NSCLC
# HCT-116 colon = tested on: HCT-116 colon
# HCT-15 colon = tested on: HCT-15 colon
# HOP-62 NSCLC = tested on: HOP-62 NSCLC
# HOP-92 NSCLC = tested on: HOP-92 NSCLC
# HS 578T breast = tested on: HS 578T breast
# HT29 colon = tested on: HT29 colon
# IGROV1 ovarian = tested on: IGROV1 ovarian
# K-562 leukemia = tested on: K-562 leukemia
# KM12 colon = tested on: KM12 colon
# LOX IMVI melanoma = tested on: LOX IMVI melanoma
# M14 melanoma = tested on: M14 melanoma
# MALME-3M melanoma = tested on: MALME-3M melanoma
# MCF7 breast = tested on: MCF7 breast
# MDA-MB-231 breast = tested on: MDA-MB-231 breast
# MDA-MB-435 = tested on: MDA-MB-435
# MDA-N = tested on: MDA-N
# MOLT-4 leukemia = tested on: MOLT-4 leukemia
# NCI-H226 lung = tested on: NCI-H226 lung
# NCI-H23 lung = tested on: NCI-H23 lung
# NCI-H460 lung = tested on: NCI-H460 lung
# OVCAR-3 ovarian = tested on: OVCAR-3 ovarian
# OVCAR-4 ovarian = tested on: OVCAR-4 ovarian
# OVCAR-5 ovarian = tested on: OVCAR-5 ovarian
# OVCAR-8 ovarian = tested on: OVCAR-8 ovarian
# PC-3 prostate = tested on: PC-3 prostate
# RPMI-8226 leukemia = tested on: RPMI-8226 leukemia
# RXF 393 renal = tested on: RXF 393 renal
# SF-268 CNS = tested on: SF-268 CNS
# SF-295 CNS = tested on: SF-295 CNS
# SF-539 CNS = tested on: SF-539 CNS
# SK-MEL-2 melanoma = tested on: SK-MEL-2 melanoma
# SK-MEL-28 melanoma = tested on: SK-MEL-28 melanoma
# SK-MEL-5 melanoma = tested on: SK-MEL-5 melanoma
# SK-OV-3 ovarian = tested on: SK-OV-3 ovarian
# SN12C renal = tested on: SN12C renal
# SNB-19 CNS = tested on: SNB-19 CNS
# SNB-75 CNS = tested on: SNB-75 CNS
# SR leukemia = tested on: SR leukemia
# SW-620 colon = tested on: SW-620 colon
# T-47D breast = tested on: T-47D breast
# TK-10 renal = tested on: TK-10 renal
# U251 CNS = tested on: U251 CNS
# UACC-257 melanoma = tested on: UACC-257 melanoma
# UACC-62 melanoma = tested on: UACC-62 melanoma
# UO-31 renal = tested on: UO-31 renal
# DU-145 prostate = tested on: DU-145 prostate
# HL-60(TB) leukemia = tested on: HL-60(TB) leukemia
# NCI-H522 lung = tested on: NCI-H522 lung
# NCI/ADR-RES ovarian = tested on: NCI/ADR-RES ovarian
smiles,measurement,setting,value
Cc1nn(C(=O)c2ccccc2O)c2c1C(c1ccc3ccccc3c1O)SC(N)=N2 (stereo not given),TGI,786-0 renal,> 10 µM
same,TGI,A498 renal,> 10 µM
same,TGI,A549 NSCLC,> 10 µM
same,TGI,ACHN renal,> 10 µM
same,TGI,BT-549 breast,> 10 µM
same,TGI,CAKI-1 renal,> 10 µM
same,TGI,CCRF-CEM leukemia,> 10 µM
same,TGI,COLO 205 colon,> 10 µM
same,TGI,EKVX NSCLC,> 10 µM
same,TGI,HCT-116 colon,> 10 µM
same,TGI,HCT-15 colon,> 10 µM
same,TGI,HOP-62 NSCLC,> 10 µM
same,TGI,HOP-92 NSCLC,4.03 µM
same,TGI,HS 578T breast,> 10 µM
same,TGI,HT29 colon,> 10 µM
same,TGI,IGROV1 ovarian,> 10 µM
same,TGI,K-562 leukemia,> 10 µM
same,TGI,KM12 colon,> 10 µM
same,TGI,LOX IMVI melanoma,> 10 µM
same,TGI,M14 melanoma,> 10 µM
same,TGI,MALME-3M melanoma,> 10 µM
same,TGI,MCF7 breast,7.32 µM
same,TGI,MDA-MB-231 breast,> 10 µM
same,TGI,MDA-MB-435,> 10 µM
same,TGI,MDA-N,> 10 µM
same,TGI,MOLT-4 leukemia,> 10 µM
same,TGI,NCI-H226 lung,> 10 µM
same,TGI,NCI-H23 lung,> 10 µM
same,TGI,NCI-H460 lung,> 10 µM
same,TGI,OVCAR-3 ovarian,9.61 µM
same,TGI,OVCAR-4 ovarian,> 10 µM
same,TGI,OVCAR-5 ovarian,> 10 µM
same,TGI,OVCAR-8 ovarian,> 10 µM
same,TGI,PC-3 prostate,> 10 µM
same,TGI,RPMI-8226 leukemia,> 10 µM
same,TGI,RXF 393 renal,> 10 µM
same,TGI,SF-268 CNS,> 10 µM
same,TGI,SF-295 CNS,> 10 µM
same,TGI,SF-539 CNS,> 10 µM
same,TGI,SK-MEL-2 melanoma,> 10 µM
same,TGI,SK-MEL-28 melanoma,> 10 µM
same,TGI,SK-MEL-5 melanoma,4.76 µM
same,TGI,SK-OV-3 ovarian,> 10 µM
same,TGI,SN12C renal,> 10 µM
same,TGI,SNB-19 CNS,> 10 µM
same,TGI,SNB-75 CNS,> 10 µM
same,TGI,SR leukemia,> 10 µM
same,TGI,SW-620 colon,> 10 µM
same,TGI,T-47D breast,8.93 µM
same,TGI,TK-10 renal,> 10 µM
same,TGI,U251 CNS,> 10 µM
same,TGI,UACC-257 melanoma,> 10 µM
same,TGI,UACC-62 melanoma,4.63 µM
same,TGI,UO-31 renal,> 10 µM
Cc1ccc(S(=O)(=O)NC(=O)NC(C(=O)O)C(C)C)cc1 (stereo not given),TGI,786-0 renal,> 100 µM
same,TGI,A549 NSCLC,> 100 µM
same,TGI,ACHN renal,> 100 µM
same,TGI,BT-549 breast,> 100 µM
same,TGI,CCRF-CEM leukemia,> 100 µM
same,TGI,COLO 205 colon,> 100 µM
same,TGI,DU-145 prostate,> 100 µM
same,TGI,HCT-116 colon,> 100 µM
same,TGI,HCT-15 colon,> 100 µM
same,TGI,HL-60(TB) leukemia,> 100 µM
same,TGI,HOP-62 NSCLC,> 100 µM
same,TGI,HOP-92 NSCLC,> 100 µM
same,TGI,HS 578T breast,> 100 µM
same,TGI,HT29 colon,> 100 µM
same,TGI,IGROV1 ovarian,> 100 µM
same,TGI,K-562 leukemia,> 100 µM
same,TGI,KM12 colon,> 100 µM
same,TGI,LOX IMVI melanoma,> 100 µM
same,TGI,M14 melanoma,> 100 µM
same,TGI,MALME-3M melanoma,> 100 µM
same,TGI,MCF7 breast,> 100 µM
same,TGI,MDA-MB-231 breast,> 100 µM
same,TGI,MDA-N,> 100 µM
same,TGI,MOLT-4 leukemia,> 100 µM
same,TGI,NCI-H23 lung,> 100 µM
same,TGI,NCI-H460 lung,> 100 µM
same,TGI,NCI-H522 lung,> 100 µM
same,TGI,NCI/ADR-RES ovarian,> 100 µM
same,TGI,OVCAR-4 ovarian,> 100 µM
same,TGI,OVCAR-5 ovarian,> 100 µM
same,TGI,OVCAR-8 ovarian,> 100 µM
same,TGI,PC-3 prostate,> 100 µM
same,TGI,RPMI-8226 leukemia,> 100 µM
same,TGI,RXF 393 renal,> 100 µM
same,TGI,SF-268 CNS,> 100 µM
same,TGI,SF-295 CNS,> 100 µM
same,TGI,SF-539 CNS,> 100 µM
same,TGI,SK-MEL-2 melanoma,> 100 µM
same,TGI,SK-MEL-28 melanoma,> 100 µM
same,TGI,SK-MEL-5 melanoma,> 100 µM
same,TGI,SK-OV-3 ovarian,> 100 µM
same,TGI,SN12C renal,> 100 µM
same,TGI,SNB-19 CNS,> 100 µM
same,TGI,SNB-75 CNS,> 100 µM
same,TGI,SR leukemia,> 100 µM
same,TGI,SW-620 colon,> 100 µM
same,TGI,T-47D breast,> 100 µM
same,TGI,TK-10 renal,> 100 µM
same,TGI,U251 CNS,> 100 µM
same,TGI,UACC-257 melanoma,> 100 µM
same,TGI,UACC-62 melanoma,> 100 µM
same,TGI,UO-31 renal,> 100 µM
CN(CCCCCl)P(=O)(OCC1=CC(=O)c2ccccc2C1=O)OC[C@H]1O[C@@H](n2cc(F)c(=O)[nH]c2=O)C[C@@H]1O (stereo not given in full),TGI,786-0 renal,18.3 µM
same,TGI,A549 NSCLC,0.553 µM
same,TGI,ACHN renal,14.7 µM
same,TGI,BT-549 breast,22.3 µM
same,TGI,CAKI-1 renal,0.627 µM
same,TGI,CCRF-CEM leukemia,29.4 µM
same,TGI,COLO 205 colon,> 26 µM
same,TGI,DU-145 prostate,5.53 µM
same,TGI,EKVX NSCLC,21.2 µM
same,TGI,HCT-116 colon,13.5 µM
same,TGI,HCT-15 colon,20.3 µM
same,TGI,HL-60(TB) leukemia,16.5 µM
same,TGI,HOP-62 NSCLC,22.6 µM
same,TGI,HS 578T breast,0.603 µM
same,TGI,HT29 colon,34.4 µM
same,TGI,IGROV1 ovarian,14.3 µM
same,TGI,K-562 leukemia,40.9 µM
same,TGI,KM12 colon,22.3 µM
same,TGI,LOX IMVI melanoma,10.7 µM
same,TGI,M14 melanoma,3.52 µM
same,TGI,MALME-3M melanoma,2.79 µM
same,TGI,MCF7 breast,8.68 µM
same,TGI,MDA-MB-231 breast,19.3 µM
same,TGI,MDA-MB-435,2.21 µM
same,TGI,MDA-N,2.19 µM
same,TGI,MOLT-4 leukemia,32.2 µM
same,TGI,NCI-H226 lung,21 µM
same,TGI,NCI-H23 lung,5.07 µM
same,TGI,NCI-H460 lung,7.9 µM
same,TGI,NCI-H522 lung,10.9 µM
same,TGI,OVCAR-3 ovarian,12.8 µM
same,TGI,OVCAR-4 ovarian,14.9 µM
same,TGI,OVCAR-5 ovarian,25.2 µM
same,TGI,OVCAR-8 ovarian,15.7 µM
same,TGI,PC-3 prostate,18.8 µM
same,TGI,RPMI-8226 leukemia,21.8 µM
same,TGI,RXF 393 renal,2.78 µM
same,TGI,SF-268 CNS,12.6 µM
same,TGI,SF-295 CNS,0.452 µM
same,TGI,SK-MEL-2 melanoma,23.4 µM
same,TGI,SK-MEL-28 melanoma,23.8 µM
same,TGI,SK-MEL-5 melanoma,0.647 µM
same,TGI,SK-OV-3 ovarian,> 42.8 µM
same,TGI,SN12C renal,1.21 µM
same,TGI,SNB-19 CNS,> 40.6 µM
same,TGI,SNB-75 CNS,0.418 µM
same,TGI,SR leukemia,28.9 µM
same,TGI,SW-620 colon,23.1 µM
same,TGI,T-47D breast,3.65 µM
same,TGI,TK-10 renal,17.7 µM
same,TGI,U251 CNS,18.4 µM
same,TGI,UACC-257 melanoma,24 µM
same,TGI,UACC-62 melanoma,1.93 µM
same,TGI,UO-31 renal,15.9 µM
